Tests used:
[1] = Acute toxicity determined after intravenal administration in mice; type: organism-based; settings: mouse, in vivo, iv
[2] = system: Rattus norvegicus; assay: Tested for incidence of arrhythmias in rats after a intravenal administration of 1 mg/kg expressed as no. of positive cases out of no. of tested cases (10); type: functional
[3] = organism: Rattus norvegicus; assay: Relative potency with reference to quinidine; type: functional
[4] = system: Rattus norvegicus; assay: Tested for incidence of arrhythmias in rats after a intravenal administration of 2 mg/kg expressed as no. of positive cases out of no. of tested cases (10); type: functional
[5] = system: Rattus norvegicus; assay: Effective dose against aconitine-induced arrhythmia after intravenal administration in anesthetized rats; type: functional
[6] = system: Cavia porcellus; assay: Amount of ouabain needed for production of ventricular extra-systoles at a dose of 1 mg/kg (iv given 5 min prior) in guinea pig; type: functional, Cardiac ventricle
[7] = system: Cavia porcellus; assay: Amount of ouabain needed for production of ventricular arrhythmias that causes death in guinea pig by cardiac arrest at a dose of 1 mg/kg iv given 5 min prior; type: functional, Cardiac ventricle
[8] = system: Cavia porcellus; assay: Amount of ouabain needed for production of ventricular fibrillation at a dose of 1 mg/kg (iv given 5 min prior) in guinea pig; type: functional, Cardiac ventricle
[9] = system: Rattus norvegicus; assay: Incidence of arrhythmias in rats after a intravenal administration at 4 mg/kg, expressed as no. of positive cases out of no. of tested cases (10); type: functional
[10] = Acute toxicity in secondary evaluation when administered intravenously (iv) against aconitine-induced arrhythmias in anesthetized rats..parenthesis indicates 95%CL; type: organism-based; settings: rat, in vivo
[11] = system: Cavia porcellus; assay: Amount of ouabain needed for production of ventricular extra-systoles at a dose of 2 mg/kg (iv given 5 min prior) in guinea pig; type: functional, Cardiac ventricle
[12] = system: Cavia porcellus; assay: Amount of ouabain needed for production of ventricular fibrillation at a dose of 2 mg/kg (iv given 5 min prior) in guinea pig; type: functional, Cardiac ventricle
[13] = system: Cavia porcellus; assay: Amount of ouabain needed for production of ventricular arrhythmias that causes death in guinea pig by cardiac arrest at a dose of 2 mg/kg iv given 5 min prior; type: functional, Cardiac ventricle

Row | Compound | LD50 [1] | Relative potency [3] | No. of positive cases [4] | ED150 [5] | No. of positive cases [9] | further results
1 | CCN(CC)C(=O)COc1c(CNCCCNC(=O)C2=CC(C)(C)NC2(C)C)cccc1OC | 2.1 mg/kg | – | – | – | – | No. of positive cases [2]: 1
2 | C=CCOc1cccc(CNCCCNC(=O)C2=CC(C)(C)NC2(C)C)c1 | 34 mg/kg | 4.4 | 7 | 2.7 mg/kg | – | –
3 | C=CCOc1ccccc1CNCCCNC(=O)C1CC(C)(C)NC1(C)C (stereo not given) | 13 mg/kg | 5.7 | 10 | 2.1 mg/kg | – | –
4 | Cc1cccc(C)c1NC(=O)CNCCCNC(=O)C1=CC(C)(C)NC1(C)C | 7.4 mg/kg | 32.2 | – | 0.37 mg/kg | – | No. of positive cases [2]: 10
5 | CCc1nc2ccccc2c(=O)n1CCCNC(=O)C1=CC(C)(C)NC1(C)C | – | 7 | 10 | – | – | Average dose [6]: 0.2115 mg/kg; Average dose [7]: 0.316 mg/kg; Average dose [8]: 0.2982 mg/kg
6 | CC1(C)C=C(C(=O)NCCCNCc2cccc(OCc3ccccc3)c2)C(C)(C)N1 | 7 mg/kg | 16.1 | 10 | 0.74 mg/kg | – | –
7 | Cc1cccc(C)c1NC(=O)C(C)NC(=O)C1=CC(C)(C)N([O])C1(C)C (stereo not given) | – | – | – | – | 0 | LD50 [10]: 165 mg/kg
8 | C/C=C/c1ccc(OCC(=O)NCC(C)(C)CNC(=O)C2=CC(C)(C)NC2(C)C)c(OC)c1 | 31 mg/kg | 3.1 | – | 3.9 mg/kg | 6 | –
9 | CC1(C)C=C(C(=O)NCC(O)CNCc2cccs2)C(C)(C)N1 (stereo not given) | 49 mg/kg | 1.6 | – | 7.6 mg/kg | 8 | –
10 | Cc1cccc(C)c1NC(=O)CNC(=O)C1=CC(C)(C)N([O])C1(C)C | – | – | – | – | 0 | LD50 [10]: 136 mg/kg
11 | Cc1cccc(C)c1NC(=O)C1=CC(C)(C)NC1(C)C | 6 mg/kg | 5.7 | – | 2.1 mg/kg | – | No. of positive cases [2]: 7
12 | COc1ccccc1CNCCCNC(=O)C1=CC(C)(C)NC1(C)C.Cl | 7.9 mg/kg | 7.4 | – | 1.6 mg/kg | 10 | –
13 | CC1(C)C=C(C(=O)NCCCNCc2ccc(OCc3ccccc3)cc2)C(C)(C)N1 | 20 mg/kg | 9.2 | 8 | 1.3 mg/kg | – | –
14 | C=CCOc1c(CNCCCNC(=O)C2=CC(C)(C)NC2(C)C)cccc1OC | 15 mg/kg | 7 | – | 1.7 mg/kg | 10 | –
15 | C=C[C@H]1CN2CC[C@H]1C[C@@H]2[C@@H](O)c1ccnc2ccc(OC)cc12 [QUINIDINE] | – | – | – | – | – | Average dose [11]: 0.1954 mg/kg; Average dose [12]: 0.2911 mg/kg; Average dose [13]: 0.3139 mg/kg
16 | C=CCc1ccc(OC(C)C(=O)NCCNC(=O)C2=CC(C)(C)NC2(C)C)c(OC)c1 (stereo not given) | 9.3 mg/kg | 4.3 | 7 | 2.8 mg/kg | – | –
17 | Cc1cccc(C)c1NC(=O)C(C)NCCCNC(=O)C1=CC(C)(C)NC1(C)C (stereo not given) | 26 mg/kg | 9.1 | – | 1.3 mg/kg | 10 | –
18 | C=CCc1cc(C)ccc1OCC(=O)NCCCNC(=O)C1=CC(C)(C)NC1(C)C | – | 4.9 | 8 | – | – | –
19 | CC1(C)C=C(C(=O)NCCCNCc2ccccc2OCC(N)=O)C(C)(C)N1 | 10 mg/kg | – | 1 | – | – | –
20 | COc1cc(CNCCCNC(=O)C2=CC(C)(C)NC2(C)C)ccc1O | 8.7 mg/kg | 25.3 | 10 | 0.47 mg/kg | – | –
21 | C=CCc1ccc(OCC(=O)NCCNC(=O)C2=CC(C)(C)NC2(C)C)c(OC)c1 | 11 mg/kg | 1.9 | – | 6.3 mg/kg | 7 | –
22 | CC1(C)CC(C(=O)NCCCNCc2ccccc2Cl)C(C)(C)N1 (stereo not given) | 31 mg/kg | 4.9 | – | 2.4 mg/kg | 7 | –
23 | Cc1cccc(C)c1NC(=O)CNC(=O)C1CC(C)(C)NC1(C)C (stereo not given) | 40 mg/kg | 14.2 | – | 0.84 mg/kg | 10 | Average dose [11]: 0.1969 mg/kg; Average dose [12]: 0.2909 mg/kg; Average dose [13]: 0.3199 mg/kg
